Source: patent US20260191875A1, “FUSED AMINO PYRIMIDINE COMPOUNDS FOR TREATMENT OF ADDICTION AND INSOMNIA” (Ovid Therapeutics Inc., priority 2024, published 2026)
Changes are numbered by the printed parent chain.

Tests used:
[1] = PK studies, brain and plasma levels by LC-MS/MS; format: in vivo, Mice; conditions: 50 mg/kg SC
Method: PK studies. […] Plasma and brain samples were rapidly frozen on dry ice.
Drug accumulation in the brain was examined following SC injection (FIG. 4C; 50 mg/kg).

KCC2-S940A = target: T1, KCC2-S940A (Homo sapiens, UniProt Q9H2X9, S963A); assay: Tl+ flux assay, HEK-293 cells expressing KCC2-S940A; format: cell-based
T1 construct: expressed in transfected cells; host or cells: HEK-293
T1 sequence (Q9H2X9 1-1116 isoform Q9H2X9-2 S940A): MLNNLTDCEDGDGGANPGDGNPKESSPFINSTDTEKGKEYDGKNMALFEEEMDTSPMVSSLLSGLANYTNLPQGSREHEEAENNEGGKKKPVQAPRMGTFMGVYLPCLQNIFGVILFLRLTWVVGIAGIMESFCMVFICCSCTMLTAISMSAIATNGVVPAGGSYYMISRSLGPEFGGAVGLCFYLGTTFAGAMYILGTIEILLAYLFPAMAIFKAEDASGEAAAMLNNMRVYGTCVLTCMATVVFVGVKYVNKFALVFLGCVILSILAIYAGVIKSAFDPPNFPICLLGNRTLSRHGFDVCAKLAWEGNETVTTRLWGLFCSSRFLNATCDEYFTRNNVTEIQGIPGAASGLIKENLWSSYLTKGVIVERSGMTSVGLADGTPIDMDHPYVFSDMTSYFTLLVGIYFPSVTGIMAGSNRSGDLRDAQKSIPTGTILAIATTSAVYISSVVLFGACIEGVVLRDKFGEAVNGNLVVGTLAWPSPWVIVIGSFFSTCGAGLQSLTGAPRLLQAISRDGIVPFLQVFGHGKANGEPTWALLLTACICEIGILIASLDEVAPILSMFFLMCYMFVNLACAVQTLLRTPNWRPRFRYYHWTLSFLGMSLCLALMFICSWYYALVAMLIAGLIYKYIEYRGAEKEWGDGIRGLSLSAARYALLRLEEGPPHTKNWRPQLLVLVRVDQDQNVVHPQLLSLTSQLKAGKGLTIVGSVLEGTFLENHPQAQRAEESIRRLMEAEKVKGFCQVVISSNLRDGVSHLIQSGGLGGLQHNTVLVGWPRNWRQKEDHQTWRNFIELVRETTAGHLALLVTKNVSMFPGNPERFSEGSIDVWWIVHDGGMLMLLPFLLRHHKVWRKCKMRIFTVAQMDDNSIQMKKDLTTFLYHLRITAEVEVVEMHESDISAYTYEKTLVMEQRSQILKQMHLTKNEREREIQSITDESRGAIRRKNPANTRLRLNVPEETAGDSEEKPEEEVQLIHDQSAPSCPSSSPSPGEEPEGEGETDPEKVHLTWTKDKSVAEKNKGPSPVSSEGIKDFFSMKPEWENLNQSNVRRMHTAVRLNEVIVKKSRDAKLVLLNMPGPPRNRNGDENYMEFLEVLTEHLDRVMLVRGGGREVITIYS
Method: FLIPR TI Flux assay. HEK-293 cells were washed with HBSS, and then incubated with loading buffer containing TI sensitive fluorescent dye (https://www.moleculardevices.com), 20 μM bumetanide 20 μM ouabain and 2.5 mM probenecid for 1 h at room temperature (RT) under control conditions or with drugs in the dark using a FlexStation 3 microplate reader (Molecular Devices) and imaged […] for 30 min. Stimulus buffer was added containing 5 mM K^+/0.5 mM Tl^+ and cells were imaged every 1.5 over a 190 second time course The initial rate Tl^+ uptake (Relative Fluorescence Units (RFU) per second) was determined following addition of the stimulus buffer as outlined previously (Conway et al., 2017, supra) (Lee et al., 2022, supra).
Several studies have shown that the activity and plasma membrane accumulation of KCC2 is potentiated via phosphorylation of S940, a process mediated by the activity of protein kinase C and protein phosphatase 1 (Lee et al., 2011, supra, Lee et al., J Biol Chem 282, 29777-29784 (2007); Moore et al., Proc. Natl. Acad. Sci. U.S.A 115, 10166-10171 (2018); Moore et al., Trends Neurosci. 40, 555-571 (2017); Silayeva et al., Proc. Natl. Acad. Sci. U.S.A 112, 3523-3528 (2015)). […] Compared to KCC2, effects on KCC3, KCC4, and NKCC1 were only seen at concentrations more than 35-fold that of KCC2 (>100 μM) (FIG. 1G).

KCC2 = target: T2, KCC2 (Homo sapiens, UniProt Q9H2X9); assay: cellular thermal shift assay (CETSA), HEK-293 cells expressing KCC2; format: binding
T2 construct: expressed in transfected cells; host or cells: HEK-293 (ATCC CRL-1573), transient transfection
T2 sequence (Q9H2X9 1-1116 isoform Q9H2X9-2): T1 sequence (Q9H2X9 1-1116 isoform Q9H2X9-2 S940A) with A940S
Method: Determining if compounds in SSA directly interact with KCC2. This was tested using a cellular thermal shift assay (CETSA), which measures the ability of a drug to modify the thermal stability of its target in whole cells (Kawatkar et al., ACS Chem. Biol. 14, 1913-1920 (2019); Martinez et al., Sci Rep 8, 9472 (2018)).
2×10^6 transfected HEK-293 cells were incubated with 30 μM drug or vehicle for 90 min at 37° C. and then heated from 37-58° C. for 5 min. Cells were rapidly chilled to 25° C. and NP40 was added to a final concentration […] to snap freezing in liquid nitrogen. Following 5 freeze/thaw cycles lysates were centrifuged at 12,000×g to remove denatured proteins and associated cell debris.
Aliquots of HEK-293 cells expressing KCC2 were exposed to 30 μM SSA, heated from 37-55° C. The remaining level of soluble native KCC2 at each temperature was measured by immunoblotting and normalized to the level seen at 37° C. which was given a value of 1. […] This panel included protein kinase C isoforms, OSR1, SPAK (STK39) and with-no-lysine kinases (WNK), all of which phosphorylate KCC2 on multiple residues to indirectly modify its activity (Kahle et al., 2013, supra; Smalley et al., 2020, supra).

[2] = tested on: neuronal cell death in the hippocampus; assay: neuronal cell death in the hippocampus, mice treated with Compound A and diazepam; format: in vivo; conditions: Compound A and diazepam vs diazepam alone
[3] = set-up: species or system Mice; conditions: in vivo
[4] = tested on: acute brain slices exposed to 0-Mg; assay: late recurrent discharges in acute brain slices exposed to 0-Mg
[5] = tested on: panel of 144 protein kinases; assay: panel of 144 protein kinases (SelectScreen; Thermofisher); format: biochemical; conditions: 144 protein kinases incl. PKC isoforms, OSR1, SPAK, WNK

SMILES: C[C@@H]1CN(c2nc3c(c(Nc4ccc(C5CCCCC5)cc4)n2)COC3)CCO1 [Compound A, (R)—N-(4-cyclohexylphenyl)-2-(2-methylmorpholino)-5,7-dihydrofuro[3,4-d]pyrimidin-4-amine]
- accumulation in the brain at 30 min [1]: detected
- brain level 8 h later [1]: maintained
- time of maximal concentration in the brain [1]: 4 h
- activity of KCC2-S940A construct (KCC2-S940A): increased the activity
- direct binding to KCC2 (KCC2): capable of directly binding to KCC2
- neuronal cell death in the hippocampus [2]: significantly reduced
- gross effects on mouse behavior [3]: no gross effects on mouse behavior
- development of late recurrent discharges (LRDs) [4]: reduced
- activity of kinase panel [5]: did not modify the activity
